Here are results for 36 compounds from ChEMBL document CHEMBL4219073, “Development of selective inhibitors for the treatment of rheumatoid arthritis: (R)-3-(3-(Methyl(7H-pyrrolo[2,3-d]pyrimidin-4-yl)amino)pyrrolidin-1-yl)-3-oxopropanenitrile as a JAK1-selective inhibitor” (Bioorg Med Chem, 2018).

Structures are written as SMILES.

Broadly, the IC50 is the point on the concentration scale where inhibition reaches its midpoint. Broadly, the fraction remaining is what is left of the initial amount, in per cent. A high value points to less turnover.

The target in series [1] is Tyrosine-protein kinase JAK1 (Homo sapiens, UniProt P23458).
Sequence of Tyrosine-protein kinase JAK1 (P23458 whole entry): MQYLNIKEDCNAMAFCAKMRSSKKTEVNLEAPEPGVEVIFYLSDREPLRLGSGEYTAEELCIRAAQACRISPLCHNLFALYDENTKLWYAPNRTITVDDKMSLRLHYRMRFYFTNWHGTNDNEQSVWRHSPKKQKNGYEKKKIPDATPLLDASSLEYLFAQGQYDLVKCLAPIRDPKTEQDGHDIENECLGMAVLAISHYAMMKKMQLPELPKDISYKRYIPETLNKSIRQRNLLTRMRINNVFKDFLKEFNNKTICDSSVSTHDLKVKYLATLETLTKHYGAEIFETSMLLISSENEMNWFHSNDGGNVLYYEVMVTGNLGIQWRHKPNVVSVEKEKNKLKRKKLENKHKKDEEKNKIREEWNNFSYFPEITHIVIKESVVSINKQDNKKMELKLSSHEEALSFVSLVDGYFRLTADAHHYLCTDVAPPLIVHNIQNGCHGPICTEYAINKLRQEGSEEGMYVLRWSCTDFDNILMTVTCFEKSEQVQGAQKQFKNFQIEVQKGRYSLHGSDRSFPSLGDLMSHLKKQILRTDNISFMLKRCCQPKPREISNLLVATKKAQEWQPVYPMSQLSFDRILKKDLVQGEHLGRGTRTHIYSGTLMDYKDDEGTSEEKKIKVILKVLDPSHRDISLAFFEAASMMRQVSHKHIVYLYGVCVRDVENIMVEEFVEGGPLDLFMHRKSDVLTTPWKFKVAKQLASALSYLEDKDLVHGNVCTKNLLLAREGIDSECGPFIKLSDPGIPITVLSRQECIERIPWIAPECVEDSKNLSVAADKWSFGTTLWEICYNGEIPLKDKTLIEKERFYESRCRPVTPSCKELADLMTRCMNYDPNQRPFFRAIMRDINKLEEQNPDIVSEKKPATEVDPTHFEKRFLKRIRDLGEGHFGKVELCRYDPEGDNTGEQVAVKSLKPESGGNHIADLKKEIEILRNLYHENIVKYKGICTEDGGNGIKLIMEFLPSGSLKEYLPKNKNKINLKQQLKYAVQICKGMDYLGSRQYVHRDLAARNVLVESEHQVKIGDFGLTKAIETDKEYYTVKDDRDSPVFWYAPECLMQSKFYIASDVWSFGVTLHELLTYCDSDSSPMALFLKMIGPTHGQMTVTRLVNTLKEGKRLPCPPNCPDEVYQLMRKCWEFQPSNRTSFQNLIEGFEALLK
Description: Inhibition of recombinant human JAK1 (866-end residues) in presence of ATP
Series [2] concerns the target Tyrosine-protein kinase JAK2 (Homo sapiens, UniProt O60674). It is filed as ADME.
Description: Inhibition of recombinant human JAK2 (808-end residues) in presence of ATP
Series [3] is described as follows: in vitro. The note with it: human, microsomes.
Description: Metabolic stability in human liver microsomes assessed as parent compound remaining after 30 mins
Series [4] in a line: in vitro. The note with it: dog, microsomes.
Description: Metabolic stability in dog liver microsomes assessed as parent compound remaining after 30 mins
A short description of series [5]: in vitro. The note with it: rat, microsomes.
Description: Metabolic stability in rat liver microsomes assessed as parent compound remaining after 30 mins
Series [6] is described as follows: in vitro. The conditions noted are these: mouse, microsomes.
Description: Metabolic stability in mouse liver microsomes assessed as parent compound remaining after 30 mins

Sequence of Tyrosine-protein kinase JAK2 (O60674 whole entry): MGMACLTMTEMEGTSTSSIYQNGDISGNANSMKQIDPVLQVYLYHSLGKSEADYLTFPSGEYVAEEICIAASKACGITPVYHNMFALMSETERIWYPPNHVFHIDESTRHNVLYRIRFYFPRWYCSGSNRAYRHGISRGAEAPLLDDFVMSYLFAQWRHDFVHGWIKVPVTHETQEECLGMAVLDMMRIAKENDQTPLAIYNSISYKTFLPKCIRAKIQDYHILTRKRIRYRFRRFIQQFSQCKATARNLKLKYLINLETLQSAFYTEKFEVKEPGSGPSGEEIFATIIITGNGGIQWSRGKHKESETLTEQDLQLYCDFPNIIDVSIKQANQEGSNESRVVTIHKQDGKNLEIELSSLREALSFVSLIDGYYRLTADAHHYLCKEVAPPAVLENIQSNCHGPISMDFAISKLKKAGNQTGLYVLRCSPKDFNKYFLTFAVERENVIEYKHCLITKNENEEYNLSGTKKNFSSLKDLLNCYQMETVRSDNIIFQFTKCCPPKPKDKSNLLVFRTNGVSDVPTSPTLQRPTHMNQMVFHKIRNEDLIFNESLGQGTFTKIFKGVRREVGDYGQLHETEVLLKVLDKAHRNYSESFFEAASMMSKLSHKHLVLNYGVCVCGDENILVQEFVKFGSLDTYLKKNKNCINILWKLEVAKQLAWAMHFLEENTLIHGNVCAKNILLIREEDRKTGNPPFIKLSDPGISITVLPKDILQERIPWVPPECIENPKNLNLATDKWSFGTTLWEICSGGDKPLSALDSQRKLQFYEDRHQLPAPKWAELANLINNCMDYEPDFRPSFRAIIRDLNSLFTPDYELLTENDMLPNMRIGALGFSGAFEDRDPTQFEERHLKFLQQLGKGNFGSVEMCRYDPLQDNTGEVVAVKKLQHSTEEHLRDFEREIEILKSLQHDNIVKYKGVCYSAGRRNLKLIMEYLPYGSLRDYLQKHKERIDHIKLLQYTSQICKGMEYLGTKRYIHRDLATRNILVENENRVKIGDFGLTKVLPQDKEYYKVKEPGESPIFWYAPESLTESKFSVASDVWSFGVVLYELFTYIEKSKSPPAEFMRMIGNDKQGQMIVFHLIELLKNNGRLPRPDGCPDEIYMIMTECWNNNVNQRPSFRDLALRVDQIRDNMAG

On to `CN(c1ncnc2[nH]ccc12)[C@@H]1CCN(S(=O)(=O)c2cccc([N+](=O)[O-])c2)C1`, for which the IC50 stood at 0.0019 µM in series [1] and 0.018 µM in series [2]. For the same compound, the amount remaining at 0.5 h in “in vitro [3]” is 13.4%; in “in vitro [4]” it was 10.4%; in “in vitro [5]”, 2.5%; in “in vitro [6]” it was 3.1%.

Turning to `CN(c1ncnc2[nH]ccc12)[C@H]1CN(C(=O)CC#N)CC12CCC2`, the IC50 was found to be 0.016 µM in series [1] and 0.45 µM in series [2].

On to `CCCCN1CC[C@@H](N(C)c2ncnc3[nH]ccc23)C1`, for which the IC50 in series [1] was found to be 0.74 µM; in series [2], 27 µM.

Turning to `CN(c1ncnc2[nH]ccc12)[C@@H]1CCN(CCC#N)C1`, the IC50 stood at 0.053 µM in series [1] and 1.9 µM in series [2].

As for `CN(c1ncnc2[nH]ccc12)[C@@H]1CCN(S(=O)(=O)N2CCOCC2)C1`, the IC50 in series [1] was determined as 0.27 µM; in series [2] it was 4.4 µM.

As for `CN(c1ncnc2[nH]ccc12)[C@@H]1CCN(S(=O)(=O)c2ccccc2F)C1`, the IC50 worked out at 0.025 µM in series [1] and 0.13 µM in series [2].

For `CN(c1ncnc2[nH]ccc12)[C@@H]1CCN(C(=O)CN=[N+]=[N-])C1`, the values for the IC50 in series [1] and in series [2] were 0.01 µM and 0.17 µM, respectively.

For the compound `CC(C)CC(=O)N1CC[C@@H](N(C)c2ncnc3[nH]ccc23)C1`, the IC50 in series [1] came to 0.07 µM; in series [2] it was 3.9 µM.

In the case of `N#Cc1cccc(S(=O)(=O)N2CC[C@@H](Nc3ncnc4[nH]ccc34)C2)c1`, the figures for the IC50 in series [1] and in series [2] were 0.51 µM and 1.9 µM, respectively.

Take `CN(c1ncnc2[nH]ccc12)[C@@H]1CCN(S(=O)(=O)c2cn(C)cn2)C1`: the IC50 in series [1] came to 0.65 µM; in series [2], 19 µM.

`Cc1cccc(S(=O)(=O)N2CC[C@@H](N(C)c3ncnc4[nH]ccc34)C2)c1`: the IC50 stood at 0.029 µM in series [1] and 0.73 µM in series [2].

`CC(C)S(=O)(=O)N1CC[C@@H](N(C)c2ncnc3[nH]ccc23)C1`: the IC50 in series [1] came to 0.17 µM; in series [2] it was 4.8 µM.

Turning to `CCN(c1ncnc2[nH]ccc12)[C@@H]1CCN(S(=O)(=O)c2cccc(C#N)c2)C1`, the results for the IC50 in series [1] and in series [2] were 0.019 µM and 0.11 µM, respectively.

`N#Cc1cccc(S(=O)(=O)N2CC[C@@H](N(CC3CC3)c3ncnc4[nH]ccc34)C2)c1`: the IC50 in series [1] came to 0.017 µM; in series [2], 1.4 µM.

On to `CN(c1ncnc2[nH]ccc12)[C@@H]1CCN(S(=O)(=O)C(F)(F)F)C1`, for which the half-inhibitory concentration (IC50) in series [1] is 0.14 µM; in series [2], 4.5 µM.

`CN(c1ncnc2[nH]ccc12)[C@@H]1CCN(S(=O)(=O)c2cccc(F)c2)C1`: the IC50 in series [1] was found to be 0.014 µM; in series [2], 0.053 µM.

Turning to `CN(c1ncnc2[nH]ccc12)[C@@H]1CCN(S(=O)(=O)c2ccccc2)C1`, the 50% inhibitory concentration (IC50) in series [1] was 0.028 µM; in series [2] it was 0.43 µM.

Consider `CN(c1ncnc2[nH]ccc12)[C@@H]1CCN(C(=O)Nc2ccccc2)C1`, for which the IC50 was determined as 0.022 µM in series [1] and 0.55 µM in series [2].

As to `N#CCC(=O)N1CC[C@@H](N(CC2CC2)c2ncnc3[nH]ccc23)C1`, the values for the IC50 in series [1] and in series [2] were 0.16 µM and 1.7 µM, respectively.

Regarding `CCCS(=O)(=O)N1CC[C@@H](N(C)c2ncnc3[nH]ccc23)C1`, the IC50 came out at 0.034 µM in series [1] and 0.46 µM in series [2].

`CN(c1ncnc2[nH]ccc12)[C@@H]1CCN(S(=O)(=O)c2cccc(C#N)c2)C1`: the values for the IC50 in series [1] and in series [2] were 0.0041 µM and 0.057 µM, respectively. The fraction remaining at 0.5 h in the series “in vitro [3]” is 26.3%; in “in vitro [4]”, 31.6%; in the series “in vitro [5]” it was 3.7%; in “in vitro [6]” it was 10%.

Take `CCS(=O)(=O)N1CC[C@@H](N(C)c2ncnc3[nH]ccc23)C1`: the IC50 in series [1] is 0.079 µM; in series [2] it was 2.4 µM.

`CN(c1ncnc2[nH]ccc12)[C@@H]1CCN(S(=O)(=O)c2ccc([N+](=O)[O-])cc2)C1`: the IC50 in series [1] was 0.0036 µM; in series [2], 0.089 µM.

Take `CN(c1ncnc2[nH]ccc12)[C@@H]1CCN(S(C)(=O)=O)C1`: the IC50 was 0.07 µM in series [1] and 4.7 µM in series [2].

In the case of `CN(c1ncnc2[nH]ccc12)[C@@H]1CCN(S(=O)(=O)c2ccc(C#N)cc2)C1`, the IC50 in series [1] is 0.011 µM; in series [2], 1.2 µM.

As for `CN(c1ncnc2[nH]ccc12)[C@@H]1CCN(S(=O)(=O)c2ccc(F)cc2)C1`, the IC50 amounted to 0.011 µM in series [1] and 0.11 µM in series [2].

As to `Cc1ccc(S(=O)(=O)N2CC[C@@H](N(C)c3ncnc4[nH]ccc34)C2)cc1`, the half-maximal inhibitory concentration (IC50) in series [1] is 0.019 µM; in series [2], 1.8 µM.

For `CCN(c1ncnc2[nH]ccc12)[C@@H]1CCN(C(=O)CC#N)C1`, the IC50 in series [1] was 0.062 µM; in series [2], 1.3 µM.

Take `CN(c1ncnc2[nH]ccc12)[C@@H]1CCN(S(=O)(=O)c2ccc(C(F)(F)F)cc2)C1`: the values for the IC50 in series [1] and in series [2] were 0.0095 µM and 3.4 µM, respectively. Moreover, the amount remaining at 0.5 h in “in vitro [3]” is 21%; in the series “in vitro [4]”, 14.2%; in “in vitro [5]”, 11.4%; in “in vitro [6]” it was 8.4%.

`CN(c1ncnc2[nH]ccc12)[C@@H]1CCN(S(=O)(=O)N2CCCCC2)C1`: the IC50 in series [1] is 0.066 µM; in series [2], 3.9 µM.

As for `CN(c1ncnc2[nH]ccc12)[C@@H]1CCN(S(=O)(=O)c2ccccc2C#N)C1`, the figures for the IC50 in series [1] and in series [2] were 0.052 µM and 0.37 µM, respectively.

In the case of `CN(c1ncnc2[nH]ccc12)[C@@H]1CCN(S(=O)(=O)c2ccccc2[N+](=O)[O-])C1`, the results for the IC50 in series [1] and in series [2] were 0.11 µM and 1.1 µM, respectively.

Turning to `COc1ccc(S(=O)(=O)N2CC[C@@H](N(C)c3ncnc4[nH]ccc34)C2)cc1`, the half-inhibitory concentration (IC50) in series [1] worked out at 0.026 µM; in series [2], 1.5 µM.

As for `CN(c1ncnc2[nH]ccc12)[C@H]1CN(C(=O)CC#N)CC1(C)C`, the IC50 was 0.26 µM in series [1] and 5.9 µM in series [2].

Take `CN(c1ncnc2[nH]ccc12)[C@@H]1CCN(S(=O)(=O)c2ccc3ccccc3c2)C1`: the IC50 is 0.013 µM in series [1] and 0.69 µM in series [2].

`CC(C)COC(=O)N1CC[C@@H](N(C)c2ncnc3[nH]ccc23)C1`: the values for the IC50 in series [1] and in series [2] were 0.11 µM and 4.3 µM, respectively.
